{"source": "patent US20100087768A1", "about": "“TRANSDERMAL DRUG DELIVERY SYSTEM FOR LIQUID ACTIVE INGREDIENT” (priority 2008, published 2010)", "key": {"[1]": {"experiment": "Shear adhesion / holding power (PSTC-7) of plain adhesives and transdermal devices", "format": "physicochemical", "description": "Holding power (shear adhesion): The ability of a tape to resist the static forces applied in the same plane as the backing. Usually expressed in a time required for a given weight per unit area to cause a given amount of tape to come loose from a vertical panel.\nThroughout this specification, including the claims, the adhesive properties of shear adhesion and peel adhesion are measured employing the test methods adopted by the PSTC (Pressure Sensitive Tape Council) for Peel Adhesion (PSTC-1 Peel Adhesion of Single Coated Pressure Sensitive Tapes at 180° Angle) and Shear Adhesion (PSTC-7 Holding Power of Pressure Sensitive Tapes). The unit for peel adhesion is newtons/inch, and the unit for holding power (shear adhesion) is minutes. The test of holding power is performed under a load of 4 lbs/in^2 (28 kPa) and at 72° F. (22° C.).\nAdhesive properties were measured as described above. The plain adhesive values given are those of the dry adhesive polymer composition without added components."}, "[2]": {"experiment": "Loss of selegiline during manufacture (after drying), HPLC", "format": "physicochemical", "conditions": "up to 15%", "description": "Lots with DT 87-2353 as adhesive, selegiline and increasing amounts of squalene (SQ) and triethylcitrate (TEC) were manufactured as described in “Description of the manufacturing process” above and the amount of selegiline present after drying was measured.\nSelegiline content was analysed by HPLC using a suitable technique"}, "[3]": {"experiment": "General appearance of patches with non-volatile coadjuvants (visual and tactile inspection)", "format": "physicochemical", "conditions": "selegiline patches in DT 87-2353"}, "shaved skin": {"tested_on": "shaved skin", "experiment": "Evaluation of dermal irritation in rabbits (Example 3)", "format": "in vivo, rabbits (New Zealand Albino)", "design": "key to Score for Skin Erythema 1 h / Score for Skin Erythema 2 h / Score for Skin Erythema 4 h / Score for Skin Erythema 6 h / Score for Skin Erythema 8 h / Score for Skin Erythema 24 h: 0: No redness (erythema).; 1: Barely perceptible redness.; 2: Well defined redness.; 3: Severe Erythema (beet redness) to slight eschar formation (injuries in depth)", "description": "Dermal irritation was tested using transdermal delivery devices manufactured as described in “Description of the manufacturing process” above with acrylic adhesives with different functionality and 15% of selegiline, all of them with shear value of more than 1.5 hours and less than 15 hours for the plain adhesive and without crosslinker agents (see Table 3). Each formulation was tested on 6 rabbits, with evaluations at 1, 2, 4, 6, 8 and 24 hrs. The degree of adhesion and glue residue was also evaluated with skin reactions on an open-label 1-day-study. Rabbits belonging to the New Zealand Albino strain were used as animal model. According protocol, and after 14 days of acclimatization, the fur of back of 6 male rabbits was thoroughly shaved. Twenty four hours later one patch of each formulation of 10.6 cm^2 was glued in each rabbit to the shaved skin, according to a randomized schedule.\nPure selegiline (25 μl) was used as control covered by Transpore tape (from 3M).\nThe irritation observed was classified according to the following scoring system: • Scale used for scoring erythema: • 0: No redness (erythema). • 1: Barely perceptible redness. • 2: Well defined redness. • 3: Severe Erythema (beet redness) to slight eschar formation (injuries in depth).\nReactions were scored as if they were covering the entire skin area treated (maximum score).\nThe Dermal Irritation Index (DII) was calculated as the average of the individual data at each evaluation time.\nThe dermal irritation indexes obtained were interpreted following ISO/WD 10993-10: […]"}, "[4]": {"conditions": "1% selegiline in the coadjuvant, seven days at 40° C."}, "[5]": {"conditions": "1% selegiline in the coadjuvant, seven days at 40° C., control pure selegiline"}}, "note": "Where “and” joins values, the source holds several entries; their conditions need not be identical. Identical values can stand only once. Like-named read-outs stand apart in the source and are kept apart here."}
{"smiles": "CCN(C)C(=O)Oc1cccc([C@H](C)N(C)C)c1", "note": "[Rivastigmine, rivastigmine]", "values": [{"measurement": "Effect of the drug on cohesiveness of the adhesives (measured by the shear test)", "setting": "[1]", "result": "reduces the cohesiveness in all the adhesives"}]}
{"smiles": "CCOC(=O)CC(O)(CC(=O)OCC)C(=O)OCC", "note": "[TEC, triethylcitrate]", "values": [{"measurement": "Effect of coadjuvant on selegiline loss during drying, in words", "setting": "[2]", "result": "diminishes the amount of active drug loss during drying in a concentration dependent manner"}, {"measurement": "Amount up to which the coadjuvant is suitable", "setting": "[3]", "result": "up to 15%"}, {"measurement": "Impurity rrt: 1.56", "setting": "[4]", "result": 0.42, "unit": "%"}, {"measurement": "Impurity rrt: 2.09", "setting": "[4]", "result": 0.98, "unit": "%"}, {"measurement": "Selegiline base (chromatographic purity)", "setting": "[5]", "result": 98.58, "unit": "%"}]}
{"smiles": "C#CCN(C)[C@H](C)Cc1ccccc1", "note": "[pure selegiline, selegiline]", "values": [{"measurement": "Score for Skin Erythema 1 h", "setting": "shaved skin; individual rabbits 1-6, 10.6 cm^2 patch, 1 h", "result": 0}, {"measurement": "Score for Skin Erythema 2 h", "setting": "shaved skin; individual rabbits 1-6, 2 h", "result": "0 (5×) and 1"}, {"measurement": "Score for Skin Erythema 4 h", "setting": "shaved skin; individual rabbits 1-6, 4 h", "result": "0 (5×) and 1"}, {"measurement": "Score for Skin Erythema 6 h", "setting": "shaved skin; individual rabbits 1-6, 6 h", "result": "0 (3×) and 1 (3×)"}, {"measurement": "Score for Skin Erythema 8 h", "setting": "shaved skin; individual rabbits 1-6, 8 h", "result": 1}, {"measurement": "Score for Skin Erythema 24 h", "setting": "shaved skin; individual rabbits 1-6, 24 h", "result": "1 (5×) and 0"}, {"measurement": "DII (Dermal Irritation Index)", "setting": "shaved skin; individual rabbits 1-6, average over evaluation times", "result": "0.3 (4×) and 0.5 and 0.8"}, {"measurement": "Erythema Score 1 h", "setting": "shaved skin; mean of 6 rabbits, 1 h", "result": 0.0}, {"measurement": "Erythema Score 2 h", "setting": "shaved skin; mean of 6 rabbits, 2 h", "result": 0.2}, {"measurement": "Erythema Score 4 h", "setting": "shaved skin; mean of 6 rabbits, 4 h", "result": 0.2}, {"measurement": "Erythema Score 6 h", "setting": "shaved skin; mean of 6 rabbits, 6 h", "result": 0.5}, {"measurement": "Erythema Score 8 h", "setting": "shaved skin; mean of 6 rabbits, 8 h", "result": 1.0}, {"measurement": "Erythema Score 24 h", "setting": "shaved skin; mean of 6 rabbits, 24 h", "result": 0.8}, {"measurement": "DII (Dermal Irritation Index), Erythema Score line", "setting": "shaved skin; overall, 6 rabbits, all times", "result": 0.4}, {"measurement": "Effect of the drug on cohesiveness of the adhesives (measured by the shear test)", "setting": "[1]", "result": "reduces the cohesiveness in all the adhesives"}, {"measurement": "Impurity (any secondary peak)", "result": "≦0.05%"}, {"measurement": "Selegiline base (chromatographic purity)", "result": 99.98, "unit": "%"}]}
{"smiles": "CC(C)=CCC/C(C)=C/CC/C(C)=C/CC/C=C(\\C)CC/C=C(\\C)CCC=C(C)C", "note": "[squalene]", "values": [{"measurement": "Effect of coadjuvant on selegiline loss during drying, in words", "setting": "[2]", "result": "diminishes the amount of active drug loss during drying in a concentration dependent manner"}, {"measurement": "Amount up to which the coadjuvant is suitable", "setting": "[3]", "result": "up to 15%"}, {"measurement": "Impurity rrt: 2.04", "setting": "[4]", "result": 0.07, "unit": "%"}, {"measurement": "Selegiline base (chromatographic purity)", "setting": "[5]", "result": 99.89, "unit": "%"}]}
